Patent publication US20260151516A1, “NEW PET TRACER FOR IMAGING OF THE FUNCTIONAL HEPATIC RESERVE” (Medizinische Universität Innsbruck, priority 2022, published 2026)

Assays:
[1] = Partition coefficient (log D), n-Octanol/PBS; type: physicochemical
Experimental: The vials were vortexed for 5 min at 1,500 rpm and then centrifuged for 5 min at 20,000 rcf (Eppendorf Centrifuge 5424).

human serum = test: Protein binding in fresh human serum (Sephadex MicroSpin G-50 columns); type: in vitro ADME; conditions: 37° C., 30 min
Experimental: Protein binding was determined for different time points (2 min, 30 min, 60 min, 120 min) in triplicates using Sephadex MicroSpin G-50 columns (GE-Healthcare, Chicago, Illinois, USA). The columns were spun initially at 20,000 rcf for 1 min to remove the storage buffer. Then approx. 5 MBq of radioligand was added to 1 mL of fresh human serum and incubated at 37° C. At each given timepoint 25 μL of the mixture was loaded on to the column, which was then spun at 20,000 rcf for 1 min. The activity content on the column (free radioligand) and in the filtrate (protein bound fraction) was quantified in a γ-counter.

[2] = Biodistribution studies incl. blocking experiments; type: in vivo; conditions: healthy BALB/c mice
Experimental: For biodistribution studies 6 week old female BALB/c mice (n=3) were injected with 0.1 nmol (100 μL, approx. 1 MBq) of labelled compound via the lateral tail vein and sacrificed after 10, 30, or 60 min by cervical dislocation. The mice were dissected, blood and organs (spleen, pancreas, stomach, intestine, liver, kidney, heart, lung, muscle, and bone) were weighed, and their activity measured in a γ-counter. For blocking experiments, mice were co-injected with 100 μL of a 277 mM Galactose/PBS solution. In case of [^68Ga]Ga-TRAP-GalNAc a 277 mM N-Acetylgalactose solution was used.

[3] = Ligand stability in human blood serum (radio-HPLC); type: in vitro ADME; conditions: 37° C., 120 min
Experimental: Ligand stability in human blood serum (n=2) and PBS (n=1) was determined for different time points (2 min, 30 min, 60 min, 120 min). Therefore, approx. 5 MBq of radioligand was added to 1 mL of fresh human serum or PBS and incubated at 37° C. At each given time point 100 μL of the mixture were transferred to a 1.5 mL Eppendorf tube containing 100 μL of acetonitrile. The vial was vortexed and centrifuged for 2 min at 14,000 rpm before 100 μL of the supernatant were diluted with 200 μL of water and injected into analytical radio-HPLC. The PBS solution was directly injected into the radio-HPLC. Ligand stability was determined by integrating the areas of the signals in the radio chromatogram in relation to the signal of the intact ligand.

[4] = 30 min p.i., blocking with 277 mM N-Acetylgalactose
[5] = 30 min p.i., blocking with 277 mM galactose

## CC(=O)N[C@H]1[C@H](OCCOCCOCCn2cc(CNC(=O)CCP(=O)([O-])CN3CCN(CP(=O)([O-])CCC(=O)NCc4cn(CCOCCOCCO[C@@H]5O[C@H](CO)[C@H](O)[C@H](O)[C@H]5NC(C)=O)nn4)CCN(CP(=O)([O-])CCC(=O)NCc4cn(CCOCCOCCO[C@@H]5O[C@H](CO)[C@H](O)[C@H](O)[C@H]5NC(C)=O)nn4)CC3)nn2)O[C@H](CO)[C@H](O)[C@@H]1O.[68Ga+3] [[^68Ga]Ga-TRAP-GalNAc]
[1]
  logD: −4.2±0.08
Human serum
  Protein binding (%): 24.3 ± 5.2%
[2]
  Liver uptake compared with [^99mTc]Tc-GSA: comparable
[2]; 10 min p.i.
  Biodistribution Blood: 0.64 ± 0.04 % ID/g
  Biodistribution Femur: 0.27 ± 0.04 % ID/g
  Biodistribution Heart: 0.69 ± 0.12 % ID/g
  Biodistribution Intestine: 0.63 ± 0.06 % ID/g
  Biodistribution Kidneys: 1.43 ± 0.10 % ID/g
  Biodistribution Liver: 69.1 ± 4.18 % ID/g
  Biodistribution Lung: 0.92 ± 0.11 % ID/g
  Biodistribution Muscle: 0.55 ± 0.03 % ID/g
  Biodistribution Pancreas: 0.92 ± 0.17 % ID/g
  Biodistribution Spleen: 0.24 ± 0.05 % ID/g
  Biodistribution Stomach: 0.86 ± 0.15 % ID/g
[2]; 30 min p.i.
  Biodistribution Blood: 0.57 ± 0.09 % ID/g
  Biodistribution Femur: 0.47 ± 0.12 % ID/g
  Biodistribution Heart: 0.73 ± 0.02 % ID/g
  Biodistribution Intestine: 4.16 ± 0.35 % ID/g
  Biodistribution Kidneys: 1.68 ± 0.30 % ID/g
  Biodistribution Liver: 63.88 ± 2.23 % ID/g
  Biodistribution Lung: 1.02 ± 0.06 % ID/g
  Biodistribution Muscle: 0.74 ± 0.08 % ID/g
  Biodistribution Pancreas: 1.50 ± 0.49 % ID/g
  Biodistribution Spleen: 0.20 ± 0.02 % ID/g
  Biodistribution Stomach: 1.60 ± 0.56 % ID/g
[2]; [4]
  Biodistribution Blood: 0.80 ± 0.04 % ID/g
  Biodistribution Femur: 0.32 ± 0.12 % ID/g
  Biodistribution Heart: 0.31 ± 0.02 % ID/g
  Biodistribution Intestine: 0.71 ± 0.06 % ID/g
  Biodistribution Kidneys: 2.86 ± 0.21 % ID/g
  Biodistribution Liver: 10.98 ± 0.44 % ID/g
  Biodistribution Lung: 0.73 ± 0.02 % ID/g
  Biodistribution Muscle: 0.28 ± 0.05 % ID/g
  Biodistribution Pancreas: 0.39 ± 0.04 % ID/g
  Biodistribution Spleen: 0.24 ± 0.01 % ID/g
  Biodistribution Stomach: 0.53 ± 0.06 % ID/g
[2]; 60 min p.i.
  Biodistribution Blood: 0.23 ± 0.02 % ID/g
  Biodistribution Femur: 0.49 ± 0.11 % ID/g
  Biodistribution Heart: 0.82 ± 0.27 % ID/g
  Biodistribution Intestine: 4.53 ± 0.35 % ID/g
  Biodistribution Kidneys: 0.79 ± 0.07 % ID/g
  Biodistribution Liver: 54.20 ± 7.95 % ID/g
  Biodistribution Lung: 0.71 ± 0.10 % ID/g
  Biodistribution Muscle: 0.57 ± 0.01 % ID/g
  Biodistribution Pancreas: 0.76 ± 0.11 % ID/g
  Biodistribution Spleen: 0.17 ± 0.05 % ID/g
  Biodistribution Stomach: 0.54 ± 0.02 % ID/g
[3]
  Serum stability (% of intact ligand): high serum stability
[3]; listed as [^68Ga]Ga-TRAP-GalNAC
  Serum stability (% of intact ligand): 99.7 ± 0.1%

## O=C(CCP(=O)(O)CN1CCN(CP(=O)(O)CCC(=O)NCc2cn([C@@H]3O[C@H](CO)[C@H](O)[C@H](O)[C@H]3O)nn2)CCN(CP(=O)(O)CCC(=O)NCc2cn([C@@H]3O[C@H](CO)[C@H](O)[C@H](O)[C@H]3O)nn2)CC1)NCc1cn(C2O[C@H](CO)[C@H](O)[C@H](O)[C@H]2O)nn1 (some centres unmarked) [Galacto-TRAP]
[2]; [5]
  Biodistribution Liver: 3.24±0.2 % ID/g

## O=C(CCP(=O)([O-])CN1CCN(CP(=O)([O-])CCC(=O)NCc2cn(CCOCCOCCO[C@@H]3O[C@H](CO)[C@@H](O)[C@H](O)[C@H]3O)nn2)CCN(CP(=O)([O-])CCC(=O)NCc2cn(CCOCCOCCO[C@@H]3O[C@H](CO)[C@@H](O)[C@H](O)[C@H]3O)nn2)CC1)NCc1cn(CCOCCOCCO[C@@H]2O[C@H](CO)[C@@H](O)[C@H](O)[C@H]2O)nn1.[68Ga+3] [[^68Ga]Ga-TRAP-Gluco, reference compound]
[1]
  logD: −3.8 ± 0.08
Human serum
  Protein binding (%): 3.3 ± 2.0%
[2]; 10 min p.i.
  Biodistribution Blood: 4.53 ± 0.52 % ID/g
  Biodistribution Femur: 0.86 ± 0.10 % ID/g
  Biodistribution Intestine: 1.10 ± 0.12 % ID/g
  Biodistribution Kidneys: 10.20 ± 1.23 % ID/g
  Biodistribution Liver: 1.06 ± 0.07 % ID/g
  Biodistribution Lung: 2.84 ± 0.13 % ID/g
  Biodistribution Muscle: 0.99 ± 0.10 % ID/g
  Biodistribution Pancreas: 1.03 ± 0.08 % ID/g
  Biodistribution Spleen: 0.94 ± 0.03 % ID/g
  Biodistribution Stomach: 1.59 ± 0.44 % ID/g
[2]; 30 min p.i.
  Biodistribution Blood: 1.40 ± 0.50 % ID/g
  Biodistribution Femur: 0.15 ± 0.14 % ID/g
  Biodistribution Heart: 1.07 ± 0.34 % ID/g
  Biodistribution Intestine: 0.57 ± 0.20 % ID/g
  Biodistribution Kidneys: 3.95 ± 1.12 % ID/g
  Biodistribution Liver: 0.51 ± 0.17 % ID/g
  Biodistribution Lung: 0.32 ± 0.10 % ID/g
  Biodistribution Muscle: 0.35 ± 0.12 % ID/g
  Biodistribution Pancreas: 0.47 ± 0.18 % ID/g
  Biodistribution Spleen: 0.41 ± 0.13 % ID/g
  Biodistribution Stomach: 0.61 ± 0.19 % ID/g
[2]; 60 min p.i.
  Biodistribution Blood: 0.16 ± 0.06 % ID/g
  Biodistribution Femur: 0.08 ± 0.03 % ID/g
  Biodistribution Heart: 0.08 ± 0.02 % ID/g
  Biodistribution Intestine: 0.14 ± 0.05 % ID/g
  Biodistribution Kidneys: 1.87 ± 0.33 % ID/g
  Biodistribution Liver: 0.15 ± 0.02 % ID/g
  Biodistribution Lung: 0.31 ± 0.03 % ID/g
  Biodistribution Muscle: 0.05 ± 0.01 % ID/g
  Biodistribution Pancreas: 0.09 ± 0.03 % ID/g
  Biodistribution Spleen: 0.11 ± 0.01 % ID/g
  Biodistribution Stomach: 0.09 ± 0.03 % ID/g

## O=C(CCP(=O)([O-])CN1CCN(CP(=O)([O-])CCC(=O)NCc2cn([C@@H]3O[C@H](CO)[C@H](O)[C@H](O)[C@H]3O)nn2)CCN(CP(=O)([O-])CCC(=O)NCc2cn([C@@H]3O[C@H](CO)[C@H](O)[C@H](O)[C@H]3O)nn2)CC1)NCc1cn([C@@H]2O[C@H](CO)[C@H](O)[C@H](O)[C@H]2O)nn1.[68Ga+3] [[^68Ga]Ga-Galacto-TRAP]
[1]
  logD: −4.16±0.09
[2]; 10 min p.i.
  Biodistribution Femur: 1.11 ± 0.18 % ID/g
  Biodistribution Heart: 6.08 ± 0.51 % ID/g
  Biodistribution Intestine: 1.80 ± 0.16 % ID/g
  Biodistribution Liver: 12.2 ± 1.4 % ID/g
  Biodistribution Lung: 1.97 ± 0.07 % ID/g
  Biodistribution Muscle: 3.25 ± 0.27 % ID/g
  Biodistribution Pancreas: 1.20 ± 0.03 % ID/g
  Biodistribution Spleen: 5.58 ± 0.17 % ID/g
  Biodistribution Stomach: 1.17 ± 0.05 % ID/g
[2]; 30 min p.i.
  Biodistribution Blood: 0.47 ± 0.16 % ID/g
  Biodistribution Femur: 0.44 ± 0.01 % ID/g
  Biodistribution Heart: 5.44 ± 0.75 % ID/g
  Biodistribution Intestine: 0.79 ± 0.15 % ID/g
  Biodistribution Kidneys: 0.88 ± 0.07 % ID/g
  Biodistribution Liver: 5.02 ± 1.08 % ID/g
  Biodistribution Lung: 0.75 ± 0.16 % ID/g
  Biodistribution Pancreas: 0.49 ± 0.07 % ID/g
  Biodistribution Spleen: 2.17 ± 0.54 % ID/g
  Biodistribution Stomach: 0.53 ± 0.05 % ID/g
[2]; [5]
  Biodistribution Blood: 0.43 ± 0.14 % ID/g
  Biodistribution Femur: 0.38 ± 0.06 % ID/g
  Biodistribution Heart: 3.24 ± 0.19 % ID/g
  Biodistribution Intestine: 0.67 ± 0.15 % ID/g
  Biodistribution Kidneys: 0.75 ± 0.11 % ID/g
  Biodistribution Liver: 5.10 ± 0.72 % ID/g
  Biodistribution Lung: 0.68 ± 0.08 % ID/g
  Biodistribution Muscle: 1.35 ± 0.16 % ID/g
  Biodistribution Pancreas: 0.43 ± 0.02 % ID/g
  Biodistribution Spleen: 1.84 ± 0.14 % ID/g
  Biodistribution Stomach: 0.48 ± 0.05 % ID/g
[2]; 60 min p.i.
  Biodistribution Blood: 0.11 ± 0.03 % ID/g
  Biodistribution Femur: 0.10 ± 0.04 % ID/g
  Biodistribution Heart: 4.84 ± 0.66 % ID/g
  Biodistribution Intestine: 0.14 ± 0.02 % ID/g
  Biodistribution Kidneys: 0.60 ± 0.06 % ID/g
  Biodistribution Lung: 0.12 ± 0.01 % ID/g
  Biodistribution Muscle: 0.35 ± 0.05 % ID/g
  Biodistribution Pancreas: 0.12 ± 0.02 % ID/g
  Biodistribution Spleen: 0.52 ± 0.23 % ID/g
  Biodistribution Stomach: 0.11 ± 0.01 % ID/g
